Measured values reported in patent US20140045873A1, “NOVEL MICROBIOCIDES” (SYNGENTA PARTICIPATIONS AG, priority 2010, published 2014).
Like-named read-outs stand apart in the source and are kept apart here.

Columns and labels:
[1] = test system: Mycosphaerella arachidis (Cercospora arachidicola); assay: Mycosphaerella arachidis (Cercospora arachidicola) / liquid culture (early leaf spot); type: cell-based; conditions: 200 ppm, liquid culture, PDB, 24° C., 4-5 days after application, read-out: control of Mycosphaerella arachidis (inhibition of growth, photometric)
[2] = test system: Pyrenophora teres; conditions: in Hordeum vulgare, foliar, read-out: control of Pyrenophora teres (disease control compared to untreated)
[3] = test system: Mycosphaerella graminicola (Septoria tritici); assay: Mycosphaerella graminicola (Septoria tritici) / liquid culture (Septoria blotch); type: cell-based; conditions: Zymoseptoria tritici; 200 ppm, liquid culture, PDB, 24° C., 4-5 days after application; read-out: control of Mycosphaerella graminicola (inhibition of growth, photometric)
[4] = test system: Phaeosphaeria nodorum (Septoria nodorum); conditions: Parastagonospora nodorum, in Triticum aestivum, foliar, read-out: control of Phaeosphaeria nodorum (percent disease control compared to untreated)
[5] = test system: Gaeumannomyces graminis; assay: Gaeumannomyces graminis / liquid culture (take-all of cereals); type: cell-based; conditions: 200 ppm, liquid culture, PDB, 24° C., 4-5 days after application, read-out: control of Gaeumannomyces graminis (inhibition of growth, photometric)
[6] = test system: Botryotinia fuckeliana (Botrytis cinerea); assay: Botryotinia fuckeliana (Botrytis cinerea) / liquid culture (gray mould); type: cell-based; conditions: Vogels broth, 24° C., 3-4 days after application, read-out: control of Botryotinia fuckeliana (inhibition of growth, photometric)
From the text: Botryotinia Fuckeliana (Botrytis cinerea)/Liquid Culture (Gray Mould): Conidia of the fungus from cryogenic storage were directly mixed into nutrient broth (Vogels broth). […].45

[7] = test system: Glomerella lagenarium (Colletotrichum lagenarium); assay: Glomerella lagenarium (Colletotrichum lagenarium) / liquid culture (anthracnose); type: cell-based; conditions: Colletotrichum orbiculare; 200 ppm, liquid culture, PDB, 24° C., 3-4 days after application; read-out: control of Glomerella lagenarium (inhibition of growth, photometric)
[8] = test system: Thanatephorus cucumeris (Rhizoctonia solani); conditions: read-out: control of Thanatephorus cucumeris (inhibition of growth, photometric)
[9] = test system: Puccinia recondita f. sp. tritici; conditions: in Triticum aestivum, foliar, read-out: control of Puccinia recondita f. sp. tritici (percent disease control compared to untreated)
[10] = test system: Puccinia recondita f. sp. tritici; conditions: in Triticum aestivum, foliar, read-out: control of Puccinia recondita f. sp. tritici (percent disease control compared to untreated); remark: listed apart in the source
[11] = test system: Monographella nivalis (Microdochium nivale); assay: Monographella nivalis (Microdochium nivale) / liquid culture (foot rot cereals); type: cell-based; conditions: PDB, 24° C., 4-5 days after application, read-out: control of Monographella nivalis (inhibition of growth, photometric)
[12] = test system: Alternaria solani; assay: Alternaria solani / tomato / leaf disc (early blight); type: in vivo; conditions: foliar, tomato leaf disks cv. Baby, inoculated 2 days after application, assessed 5-7 days after application, read-out: control of Alternaria solani (percent disease control compared to untreated)
Procedure: The inoculated leaf disks were incubated at 23° C./21° C. […].44

[13] = test system: Pythium ultimum; assay: Pythium ultimum / liquid culture (seedling damping off); type: cell-based; conditions: Globisporangium ultimum, potato dextrose broth, 24° C., 2-3 days after application, read-out: control of Pythium ultimum (inhibition of growth, photometric)

Row | melting point [°C] | SMILES | inhibition at 200 ppm [1] [%] | pest or weed control at 200 ppm [2] [%] | inhibition at 200 ppm [3] [%] | pest or weed control at 200 ppm [4] [%] | inhibition at 200 ppm [5] [%] | inhibition at 200 ppm [6] [%] | inhibition at 200 ppm [7] [%] | inhibition at 200 ppm [8] [%] | pest or weed control at 200 ppm [9] [%] | pest or weed control at 200 ppm [10] [%] | inhibition at 200 ppm [11] [%] | pest or weed control at 200 ppm [12] [%] | inhibition at 200 ppm [13] [%]
1 | 84 to 86 | COc1cc(C)nc(-c2cccc(CCCO/N=C(\C)c3cccc(C)n3)n2)c1 [P.11, 1-(6-methyl-pyridin-2-yl)-ethanone-O-[3-(4′-methoxy-6′-methyl-[2,2]bipyridinyl-6-yl)-propyl]-oxime] | ≥ 80 | ≥ 80 | ≥ 80 | ≥ 80 | ≥ 80 | ≥ 80 | ≥ 80 | ≥ 80 | ≥ 80 | ≥ 80 | ≥ 80 | – | –
2 | – | CCOc1cc(C)nc(-c2cccc(CCCO/N=C(\C)c3cccc(C)n3)n2)c1 [P.12] | ≥ 80 | ≥ 80 | – | ≥ 80 | – | ≥ 80 | ≥ 80 | ≥ 80 | ≥ 80 | ≥ 80 | ≥ 80 | ≥ 80 | ≥ 80
3 | – | COc1cc(C)nc(-c2cccc(CCCO/N=C(\C)c3cc(C)cc(C)n3)n2)c1 [P.13] | ≥ 80 | ≥ 80 | ≥ 80 | ≥ 80 | ≥ 80 | ≥ 80 | ≥ 80 | – | ≥ 80 | ≥ 80 | ≥ 80 | ≥ 80 | ≥ 80
4 | 53 to 54 | C/C(=N\OCCCc1cccc(-c2cc(Cl)cc(C)n2)n1)c1cccc(C)n1 [P.16, 1-(6-methyl-pyridin-2-yl)-ethanone-O-[3-(4′-chloro-6′-methyl-[2,2′]bipyridinyl-6-yl)-propyl]-oxime] | ≥ 80 | ≥ 80 | ≥ 80 | ≥ 80 | ≥ 80 | ≥ 80 | ≥ 80 | ≥ 80 | ≥ 80 | ≥ 80 | – | – | –
5 | 76 to 77 | CSc1cc(C)nc(-c2cccc(CCCO/N=C(\C)c3cccc(C)n3)n2)c1 [P.17] | ≥ 80 | ≥ 80 | ≥ 80 | ≥ 80 | ≥ 80 | – | ≥ 80 | ≥ 80 | ≥ 80 | ≥ 80 | ≥ 80 | – | ≥ 80
6 | – | C/C(=N\OCCCc1cccc(-c2cccc(C)n2)n1)c1cccc(C)n1 [P.21] | ≥ 80 | ≥ 80 | ≥ 80 | ≥ 80 | ≥ 80 | ≥ 80 | ≥ 80 | – | ≥ 80 | ≥ 80 | – | ≥ 80 | ≥ 80
7 | – | CON=C(C)c1ccc(-c2cccc(CCCO/N=C(\C)c3cccc(C)n3)n2)nc1C [P.22] | ≥ 80 | ≥ 80 | ≥ 80 | ≥ 80 | ≥ 80 | ≥ 80 | ≥ 80 | – | ≥ 80 | ≥ 80 | – | ≥ 80 | –
8 | – | C/C(=N\OCCCc1cccc(-c2cc(OC(C)C)cc(C)n2)n1)c1cccc(C)n1 [P.27] | ≥ 80 | ≥ 80 | ≥ 80 | ≥ 80 | – | ≥ 80 | ≥ 80 | ≥ 80 | ≥ 80 | ≥ 80 | ≥ 80 | ≥ 80 | ≥ 80
9 | – | C#CCOc1cc(C)nc(-c2cccc(CCCO/N=C(\C)c3cc(C)cc(C)n3)n2)c1 [P.29] | ≥ 80 | ≥ 80 | ≥ 80 | ≥ 80 | ≥ 80 | ≥ 80 | ≥ 80 | ≥ 80 | ≥ 80 | ≥ 80 | ≥ 80 | ≥ 80 | –
10 | 128 to 130 | CCc1cc(O)c(C)c(-c2cccc(CCCO/N=C(\C)c3cccc(C)n3)n2)n1 [P.32] | – | – | – | – | – | – | – | – | – | – | – | – | –
11 | – | CCc1ccc(C)c(-c2cccc(CCCO/N=C(\C)c3cccc(C)n3)n2)n1 [P.42] | ≥ 80 | ≥ 80 | ≥ 80 | ≥ 80 | ≥ 80 | ≥ 80 | ≥ 80 | ≥ 80 | ≥ 80 | ≥ 80 | ≥ 80 | ≥ 80 | –
12 | – | COc1cc(C)nc(-c2ccc(OC)c(CCCO/N=C(\C)c3cccc(C)n3)n2)c1 [P.43] | ≥ 80 | ≥ 80 | ≥ 80 | ≥ 80 | ≥ 80 | ≥ 80 | ≥ 80 | ≥ 80 | ≥ 80 | ≥ 80 | ≥ 80 | – | ≥ 80
13 | – | COc1cc(C)nc(-c2cccc(CCCO/N=C(\C)c3nc(C)cc(C)n3)n2)c1 [P.44] | ≥ 80 | ≥ 80 | ≥ 80 | ≥ 80 | ≥ 80 | ≥ 80 | ≥ 80 | ≥ 80 | ≥ 80 | ≥ 80 | ≥ 80 | ≥ 80 | ≥ 80
